Assay results published in article PMC11270687 (ACS Omega, 2024).

System: PD3
Type: biochemical, Brucella anthropi

**Q.** Which Km does the source give for CCCC(=O)Oc1ccc([N+](=O)[O-])cc1 [p-nitrophenyl butyrate] here?
**A.** 7.82 mM
